Experimental data taken from patent publication US20130174289A1, “Na+/Mg2+ Exchanger” (FBN - Leibnitz-Institut fur Nutztierbiologie, priority 2010, published 2013).

Assays:
[1] = molecular target: SLC41A1-related Na+/Mg2+ exchanger (Homo sapiens, UniProt Q8IVJ1); test: Modulators of SLC41A1-related Na+/Mg2+ exchanger activity (Table 3); type: cell-based; conditions: at the dosage given, where given;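 also: listed substances are classed by whether they raise or lower SLC41A1-related Na+/Mg2+ exchanger activity, acting directly on the protein or through cellular signalling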
hSLC41A1 = hSLC41A1 (Homo sapiens, UniProt Q8IVJ1); test: Mg2+ efflux ([Mg2+]i decrease over 20 min) by mag-fura 2 FF-spectrofluorometry in +tet HEK293-(SLC41A1) cells; conditions: for Mg2+ efflux: Mg2+-free medium, [Na+]e 145 mM; for Effect on SLC41A1-mediated Mg2+ efflux (in words): summary statement
Description: Loading of cells with 7.5 μmol.l^−1 mag-fura 2 AM (Molecular Probes, Eugene, Oreg. USA) was performed for 30 minutes at 37° C. in the presence of loading facilitator Pluronic F-127 (Molecular probes). After being washed in CMF-HBS+, cells were incubated for a further 30 minutes at 37° C. to allow for complete de-esterification of the fluorescence probe, washed twice in CMF-HBS+ to remove extracellular mag-fura 2 and stored in CMF-HBS supplemented with 10 mmol.l^−1 HEPES, 5 mmol.l^−1 glucose and 0.4 mmol.l^−1 Mg^2+ until being Mg^2+-loaded before measurements of the Mg^2+ efflux capacity. The latter was determined as the intracellular Mg^2+ concentration ([Mg^2+]i) decrease over a 20-min period. Directly before the efflux experiments, −tet and +tet HEK293-(SLC41A1) were Mg-loaded by a 20-min incubation in CMF-HBS+ containing 0, 2, 5 or 10 mmol.l^−1 Mg. […] After loading, the remaining extracellular Mg^2+ was removed by washing the cells twice in CMF-HBS+ and, after re-suspending the cells in CMF-HBS+, measurements were started. To determine the influence of varying extracellular [Na^+], measuring solutions were prepared by diluting the CMF-HBS+ containing 145 mM Na^+ with appropriate volumes of a completely Na^+- and Mg^2+-free PBS. To investigate the effect of HCO3^− on Mg^2+ efflux, completely Ca^2+- and Mg^2+-free medium 199 completed with 10 mmol.l^−1 HEPES and 1.36 mmol.l^−1 L-glutamine (CMF-M199+) with Hank's (0.35 g/l NaHCO3) or Earl's (2.2 g/l NaHCO3) salts were used during Mg-loading and measurements. To ensure a stable pH value, the high-HCO3^− media were pre-equilibrated with 95% air-5% CO2.
Measurements were made at 37° C. in 3 ml cuvettes containing 2 ml cell suspension (CMF-HBS+ or CMF-M199+ with a cytocrit of 10%) under stirring. [Mg^2+]i was determined by measuring the fluorescence of the probe-loaded cells in a spectrofluorometer (LS50-B, PerkinElmer Life Science, Wellesley, Mass. USA) by using the fast filter accessory, which allowed fluorescence to be measured at 20-ms intervals with excitation at 340 and 380 nm, and emission at 515 nm. [Mg^2+]i values were calculated from the 340/380-nm ratio according to the formula of Grynkiewicz et al. (1981) by using the software FL WinLab version 4.0 (PerkinElmer Life Science). A dissociation constant of 1.5 mmol.l^−1 for the mag-fura 2/Mg^2+ complex was used for calculations; minimum (Rmin) and maximum (Rmax) ratios were determined at the end of each experiment by using digitonin. Rmax was found by the addition of 25 mmol.l^−1 MgCl2 in the absence of Ca^2+, whereas Rmin was obtained by addition of 50 mmol.l^−1 EDTA, pH 7.2, to remove all Mg^2+ from the solution. For data evaluation, 10-second data sets each were averaged at the beginning of the measurement and then always after 50 seconds. The final [Mg^2+]i was determined as the mean [Mg^2+]i of the last 10 seconds of the measurement. Thus, for the calculation of any given [Mg^2+]i, 500 data points were used. If not otherwise stated, data are presented as means±standard error (SE).

HEK293-(SLC41A1) cells = test: Proliferation (cell index) of HEK293-(SLC41A1) cells; conditions: imipramine 250 μM, dB-cAMP 100 μM, added 24 hours after seeding; compared to controls

Sequence of SLC41A1-related Na+/Mg2+ exchanger (Q8IVJ1 whole entry): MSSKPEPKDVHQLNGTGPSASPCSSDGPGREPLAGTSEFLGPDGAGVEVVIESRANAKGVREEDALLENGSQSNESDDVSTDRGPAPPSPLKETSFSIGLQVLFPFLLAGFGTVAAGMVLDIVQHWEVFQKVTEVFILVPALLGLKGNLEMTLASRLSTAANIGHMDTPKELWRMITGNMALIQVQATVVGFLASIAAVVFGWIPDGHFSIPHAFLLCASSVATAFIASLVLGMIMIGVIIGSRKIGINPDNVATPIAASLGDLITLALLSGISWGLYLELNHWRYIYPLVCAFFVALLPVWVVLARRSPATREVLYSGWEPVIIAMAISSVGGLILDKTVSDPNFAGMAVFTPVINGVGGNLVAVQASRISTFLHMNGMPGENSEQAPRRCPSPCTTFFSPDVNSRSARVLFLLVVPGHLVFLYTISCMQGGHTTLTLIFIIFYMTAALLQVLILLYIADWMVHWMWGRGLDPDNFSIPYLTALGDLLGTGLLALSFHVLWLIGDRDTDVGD
Sequence of hSLC41A1 (Q8IVJ1 whole entry): as above

Question: For Nc1ncnc2c1nc(Cl)n2[C@@H]1O[C@@H]2COP(=O)(O)O[C@H]2[C@H]1O [8-Cl-cAMP], which “Effect on Na+/Mg2+ exchanger” value [1] is on record?
Answer: activation

Question: For Nc1nc2c(nc(Br)n2[C@@H]2O[C@@H]3COP(=O)(O)O[C@H]3[C@H]2O)c(=O)[nH]1 [8-bromo-cyclic GMP], which “Effect on Na+/Mg2+ exchanger” value [1] is on record?
Answer: activation

Question: Which “Effect on Na+/Mg2+ exchanger” value [1] does the source give for C[C@]12CCC(=O)C=C1CC[C@@H]1[C@@H]2[C@@H](O)C[C@]2(C=O)[C@@H](C(=O)CO)CC[C@@H]12 [Aldosterone] here?
Answer: activation

Question: For N=C(N)NC(=O)c1nc(Cl)c(N)nc1N [Amiloride, 3,5-diamino-6-chloro-N-(diaminomethylidene)pyrazine-2-carbox-amide], which “Effect on Na+/Mg2+ exchanger” value [1] is on record?
Answer: Inhibition

Question: For CCCCC/C=C\C/C=C\C/C=C\C/C=C\CCCC(=O)O [Arachidonic acid, (5Z,8Z,11Z,14Z)-icosa-5,8,11,14-tetraenoic acid], which “Effect on Na+/Mg2+ exchanger” value [1] is on record?
Answer: activation

Question: N/C(=N\C(=O)c1nc(Cl)c(N)nc1N)NCc1ccccc1 [Benzamil, 3,5-diamino-N-[(1E)-amino(benzylamino)methylidene]-6-chloropyrazine-2-carboxamide] was tested. Which “Effect on Na+/Mg2+ exchanger” value [1] did it give?
Answer: Inhibition

Question: How did the “Effect on Na+/Mg2+ exchanger” value [1] turn out when COc1c(O)c2c(=O)cc(OC)c3c4c(OC)cc(=O)c5c(O)c(OC)c(CC(C)OC(=O)c6ccccc6)c(c(c1CC(C)OC(=O)Oc1ccc(O)cc1)c23)c54 (stereo not shown) [Calphostin C, 1-[3,10-dihydroxy-12-[2-(4-hydroxyphenoxy)-carbonyloxypropyl]-2,6,7,11-tetramethoxy-4,9-dioxoperylen-1-yl]propan-2-yl benzoate] was run?
Answer: inhibition

Question: For O=S(=O)([O-])c1cc(N=C=S)ccc1CCc1ccc(N=C=S)cc1S(=O)(=O)[O-].[Na+].[Na+] [DIDS, 4′,4′-diisothiocyanatodihydrostilbene-′,2′-disulfonic acid, disodium salt], which “Effect on Na+/Mg2+ exchanger” value [1] is on record?
Answer: Inhibition

Question: C=C[C@@]1(C)CC(=O)[C@]2(O)[C@@]3(C)[C@@H](O)CCC(C)(C)[C@@H]3[C@H](O)[C@H](OC(C)=O)[C@@]2(C)O1 [Forskolin, [(3R,4aR,5S,6S,6aS,10S,10aR,10bS)-3-ethenyl-6,10,10b-trihydroxy-3,4a,7,7,10a-pentamethyl-1-oxo-5,6,6a,8,9,10-hexahydro-2H-benzo[f]chromen-5-yl] acetate] was tested. Which “Effect on Na+/Mg2+ exchanger” value [1] did it give?
Answer: activation

Question: For O=c1c(-c2ccc(O)cc2)coc2cc(O)cc(O)c12 [Genistein, 5,7-dihydroxy-3-(4-hydroxyphenyl)chromen-4-one], which “Effect on Na+/Mg2+ exchanger” value [1] is on record?
Answer: inhibition

Question: Which “Mg2+ efflux” value (hSLC41A1; 250 μM, Mg2+-loaded (20 min, 10 mM) +tet HEK293-(SLC41A1) cells, without inhibitor 341±35) does the source give for CN(C)CCCN1c2ccccc2CCc2ccccc21 [Imipramine, 10,11-Dihydro-N,N-dimethyl-5H-dibenz-[b,f]azepin-5-propanamin] here?
Answer: 129±32 μM/20 min

Question: And the “Effect on SLC41A1-mediated Mg2+ efflux (in words)” value (hSLC41A1)?
Answer: strongly decrease

Question: And the “Effect on proliferation of SLC41A1-overexpressing cells (in words)” value (HEK293-(SLC41A1) cells)?
Answer: reduced the proliferation

Question: And the “Effect on Na+/Mg2+ exchanger” value [1]?
Answer: Inhibition

Question: COc1ccc2c(c1)c(CC(=O)O)c(C)n2C(=O)c1ccc(Cl)cc1 [Indomethacin, 2-[1-(4-chlorobenzoyl)-5-methoxy-2-methylindol-3-yl]acetic acid] was tested. Which “Effect on Na+/Mg2+ exchanger” value [1] did it give?
Answer: activation

Question: How did the “Effect on Na+/Mg2+ exchanger” value [1] turn out when CS(=O)(=O)O.N=C(N)SCCc1ccc(OCc2ccc([N+](=O)[O-])cc2)cc1 [KB-R7943, 2-(2-(4-(4-nitrobenzyloxy)-phenyl)ethyl)isothiourea methanesulfonate] was run?
Answer: Inhibition

Question: Which “Effect on Na+/Mg2+ exchanger” value [1] does the source give for CNC(=N)NCCC[C@H](N)C(=O)O [L-NMMA, NG-monomethyl-L-arginine] here?
Answer: inhibition

Question: How did the “Effect on Na+/Mg2+ exchanger” value [1] turn out when CCN(CC)CC(=O)Nc1c(C)cccc1C [Lidocaine, 2-(diethylamino)-N-(2,6-dimethylphenyl)-acetamide] was run?
Answer: Inhibition

Question: With COCC(/C(C)=C/C(=N\O)C(N)=O)[N+](=O)[O-] (stereo not shown) [NOR1, (E)-4-methyl-2-[(E)-hydoxyimino]-5-nitro-6-methoxy-3-hexenamide] as the compound, how does the “Effect on Na+/Mg2+ exchanger” value [1] read?
Answer: activation

Question: Which “Effect on Na+/Mg2+ exchanger” value [1] does the source give for COC(=O)C1=C(C)NC(C)=C(C(=O)OC)C1c1ccccc1[N+](=O)[O-] [Nifedipine, 3,5-dimethyl 2,6-dimethyl-4-(2-nitrophenyl)-1,4-di-hydropyridine-3,5-di-carboxylate] here?
Answer: Inhibition

Question: With NC[C@H](O)c1ccc(O)c(O)c1 [Norepinephrine] as the compound, how does the “Effect on Na+/Mg2+ exchanger” value [1] read?
Answer: activation

Question: For O=c1onc2cnc3ccccc3n12 [ODQ, 1H-[1,2,4]oxadiazolo[4,3-α]quinoxaline-1], which “Effect on Na+/Mg2+ exchanger” value [1] is on record?
Answer: inhibition

Question: With C[C@@H]1O[C@@H](O[C@H]2C[C@@H](O)[C@]3(CO)[C@H]4[C@H](O)C[C@]5(C)[C@@H](C6=CC(=O)OC6)CC[C@]5(O)[C@@H]4CC[C@]3(O)C2)[C@H](O)[C@H](O)[C@H]1O [Ouabain] as the compound, how does the “Effect on Na+/Mg2+ exchanger” value [1] read?
Answer: inhibition

Question: Which “Effect on Na+/Mg2+ exchanger” value [1] does the source give for CCCCC[C@H](O)/C=C/[C@H]1[C@H](O)CC(=O)[C@@H]1C/C=C\CCCC(=O)O [PGE2, (Z)-7-[(1R,2R,3R)-3-hydroxy-2-[(E,3S)-3-hydroxyoct-1-enyl]-5-oxocyclopentyl]hept-5-enoic acid] here?
Answer: activation

Question: CCCC(=O)O[C@@H]1[C@@H](C)[C@@]2(O)[C@@H](C=C(CO)C[C@]3(O)C(=O)C(C)=C[C@@H]23)[C@@H]2C(C)(C)[C@]12OC(=O)CCC [Phorbol 12,13-dibutyrate] was tested. Which “Effect on Na+/Mg2+ exchanger” value [1] did it give?
Answer: activation

Question: How did the “Mg2+ efflux” value (hSLC41A1; 100 μM quinidin, Mg2+-loaded (10 mM) +tet HEK293-(SLC41A1) cells, without inhibitor 327±71) turn out when C=CC1CN2CCC1CC2C(O)c1ccnc2ccc(OC)cc12 (stereo not shown) [Quinidin, (2-ethenyl-4-azabicyclo [2.2.2]oct-5-yl)-(6-methoxyquinolin-4-yl)-methanol] was run?
Answer: 176±0.5 μM/20 min

Question: And the “Effect on SLC41A1-mediated Mg2+ efflux (in words)” value (hSLC41A1)?
Answer: strongly decrease

Question: And the “Effect on Na+/Mg2+ exchanger” value [1]?
Answer: Inhibition

Question: How did the “Effect on Na+/Mg2+ exchanger” value [1] turn out when Nc1ncnc2c1ncn2[C@@H]1O[C@@H]2COP(O)(=S)O[C@H]2[C@H]1O (stereo partly shown) [Rp-cAMP] was run?
Answer: inhibition

Question: For CCOc1ccc(Oc2ccc(OCc3cc(F)ccc3F)cc2)c(N)c1 [SEA0400, 2-[4-[(2,5-difluoro-phenyl)methoxy]phenoxy]-5-ethoxyaniline], which “Effect on Na+/Mg2+ exchanger” value [1] is on record?
Answer: Inhibition

Question: NCCS(=O)(=O)O [Taurine, 2-aminoethanesulfonic acid] was tested. Which “Effect on Na+/Mg2+ exchanger” value [1] did it give?
Answer: inhibition

Question: With C[C@@H]1C[C@@]2(NC(=O)CS2)[C@]2(O)O[C@@H]3C[C@@]4(CO)[C@@H](CC[C@@H]5[C@@H]4CC[C@]4(C)[C@@H](C6=CC(=O)OC6)CC[C@]54O)C[C@H]3O[C@@H]2O1 [UNBS-1450] as the compound, how does the “Effect on Na+/Mg2+ exchanger” value [1] read?
Answer: inhibition

Question: Which results are given for CCCC(=O)Nc1ncnc2c1ncn2[C@@H]1O[C@@H]2COP(=O)(O)O[C@H]2[C@H]1OC(=O)CCC [dibutyryl-cAMP]?
Answer: increase of SLC41A1-related Mg2+ efflux (hSLC41A1; dB-cAMP 100 μM, loading in 0 mM-Mg2+ solution, +tet cells): 36%; increase of SLC41A1-related Mg2+ efflux (hSLC41A1; dB-cAMP 100 μM, loading in 2 mM-Mg2+ solution, +tet cells): 13%; decrease of SLC41A1-related Mg2+ efflux (hSLC41A1; dB-cAMP 100 μM, loading in 10 mM-Mg2+ solution, +tet cells): 17%; Effect on SLC41A1-mediated Mg2+ efflux (in words) (hSLC41A1): stimulated; Effect on proliferation of SLC41A1-overexpressing cells (in words) (HEK293-(SLC41A1) cells): stimulation of their proliferation; Effect on Na+/Mg2+ exchanger [1]: activation

Question: Which “Effect on Na+/Mg2+ exchanger” value [1] does the source give for CC(C)NCC(O)c1ccc(O)c(O)c1 (stereo not shown) [isoproterenol] here?
Answer: activation

Question: How did the “Effect on Na+/Mg2+ exchanger” value [1] turn out when C[C@]12CC[C@H](O)C[C@@]1(O)CC[C@@H]1[C@@H]2CC[C@]2(C)[C@@H](c3ccc(=O)oc3)C[C@H]3O[C@]132 [marinobufagenin] was run?
Answer: inhibition

Question: CO[C@H]1C[C@H](O[C@H]2CC[C@@]3(C)[C@H](CC[C@@H]4[C@@H]3CC[C@]3(C)[C@@H](C5=CC(=O)OC5)[C@@H](OC(C)=O)C[C@]43O)C2)O[C@@H](C)[C@@H]1O [oleandrin] was tested. Which “Effect on Na+/Mg2+ exchanger” value [1] did it give?
Answer: inhibition

Question: How did the “Effect on Na+/Mg2+ exchanger” value [1] turn out when C[C@]12CC[C@H](O)C[C@H]1CC[C@@H]1[C@@H]2CC[C@]2(C)[C@@](O)(c3ccoc3)CC[C@]12O [rostafuroxin] was run?
Answer: inhibition

Question: “Angiotensin II: hormone; vasoactive agent, vasoconstriction (via AT 1 receptor) (DRVYIHPF; Angiotensin-2; UniProt P01019 25-32, looked up)” was tested. Which “stimulation of SLC41A1-related Mg2+ efflux” value (hSLC41A1) did it give?
Answer: 19.5%

Question: And the “Effect on SLC41A1-mediated Mg2+ efflux (in words)” value (hSLC41A1)?
Answer: stimulated

Question: And the “Effect on Na+/Mg2+ exchanger” value [1]?
Answer: activation

Question: “Glucagon: hormone; modulator listed in Table 3” was tested. Which “Effect on Na+/Mg2+ exchanger” value [1] did it give?
Answer: activation

Question: Which “Effect on SLC41A1-mediated Mg2+ efflux (in words)” value (hSLC41A1) does the source give for Insulin: hormone (via insulin receptor) here?
Answer: inhibitory effect

Question: What about the “Effect on Na+/Mg2+ exchanger” value [1] of the same compound?
Answer: inhibition

Question: Which “Effect on Na+/Mg2+ exchanger” value [1] does the source give for epidermal growth factor (EGF): mitogen here?
Answer: inhibition
